Source: patent publication US20170107207A1, “AMINOPYRAZOLONE DERIVATIVE” (DAIICHI SANKYO COMPANY, LIMITED, priority 2014, published 2017)
pIC50: −log10 of the molar value.

Assays:
TIP48/TIP49 complex = biological target: T1, TIP48/TIP49 complex (Homo sapiens, UniProt Q9Y230+Q9Y265); assay: ATPase assay of TIP48/TIP49 complex (ADP-Glo); format: biochemical; settings: concentration at which the ATPase activity was inhibited by 50%
T1 construct: made in house; host or cells: E. coli
Summary of the method: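 Compound was tested over 10 four-fold concentrations, 200 μM down to 0.0007 μM at 2% DMSO, against E. coli-derived human rTIP48/rTIP49 for 1.5 h at room temperature, pH 7.5 with ATP. ATP hydrolysis was read as ADP-Glo luminescence, normalised to complex-only and no-complex wells, then fitted to dose-response curves.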

[1] = test system: human lymphoma cell line RAMOS cells; assay: Cell growth inhibition test using RAMOS cell, MTT assay; format: cell-based; settings: 50% growth inhibition concentration
Description: A cell growth inhibition test was carried out by treating human lymphoma cell line RAMOS cells with a test compound for a given period and then counting the number of viable cells by MTT assay or CellTiter-Glo Luminescent Cell Viability Assay (manufactured by Promega Corp.; hereinafter, referred to as ATP assay).
RAMOS cells were suspended in a medium (RPMI1640 medium containing 10% fetal bovine serum). The cell suspension was inoculated at 5000 cells/150 μL/well to a 96-well multiwell plate. The test compound was dissolved in DMSO, and this solution was diluted with medium to prepare a sample solution (DMSO concentration: 1% or lower). Subsequently, test compound-free medium or the sample solution was added thereto at 50 μL/well. The MTT assay was carried out at the day of addition of the sample solution or the DMSO dilution to the cells and after culture at 37° C. for 3 days under 5% CO2 of the cells supplemented with the sample solution or the medium. The MTT assay was carried out as follows.
A 5 mg/mL solution of MTT (3-(4,5-dimethylthiazol-2-yl)-2,5-diphenyltetrazolium bromide, Sigma-Aldrich Corp., M-2128) was prepared using a phosphate buffered solution (Dulbecco's phosphate-buffered saline). This MTT solution was added at 20 μL/well to the plate. Then, the plate was incubated at 37° C. for 4 hours under 5% CO2. The plate was centrifuged at 1200 rpm for 5 minutes, and then, the culture supernatant was removed by suction using a dispenser. DMSO was added thereto at 150 μL/well to dissolve formed formazan. […] from each well was rendered uniform by the stirring of the plate using a plate mixer. The absorbance of each well was measured using a plate reader under conditions involving OD of 540 nm and reference of 660 nm.
The number of viable cells and absorbance (hereinafter, referred to as an OD value) have been confirmed to correlate with each other. Therefore, the rate of cell growth was calculated according to the following expression: Rate of cell growth (T/C %) of a test compound-supplemented well=100×[(B−C)/(A−C)] wherein A represents the OD value (final culture date) of a test compound-free well; B represents the OD value (final culture date) of a test compound-containing well; and C represents the OD value (day of cell inoculation) of a well at the start of contact of the cells with the test compound.
T/C % at each concentration of the test compound was determined. The concentration at which the test compound offered 50% growth rate was calculated as a 50% growth inhibition concentration (GI50) value from the growth rates at two points interpolating 50% and the concentrations, and is shown in Table 56.

T1 sequence (Q9Y230 whole entry): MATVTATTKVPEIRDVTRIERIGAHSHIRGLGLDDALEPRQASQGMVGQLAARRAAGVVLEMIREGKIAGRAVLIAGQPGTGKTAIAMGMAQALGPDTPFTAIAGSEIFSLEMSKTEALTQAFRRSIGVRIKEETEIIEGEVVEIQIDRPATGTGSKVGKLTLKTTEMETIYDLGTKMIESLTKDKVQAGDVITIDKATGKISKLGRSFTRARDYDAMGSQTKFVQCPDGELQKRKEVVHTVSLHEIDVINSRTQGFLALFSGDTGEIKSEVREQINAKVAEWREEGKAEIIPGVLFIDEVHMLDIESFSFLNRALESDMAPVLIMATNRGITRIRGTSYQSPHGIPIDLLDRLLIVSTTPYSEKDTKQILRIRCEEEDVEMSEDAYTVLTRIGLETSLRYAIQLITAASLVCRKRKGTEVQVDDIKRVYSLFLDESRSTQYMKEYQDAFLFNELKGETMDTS
T1 sequence (Q9Y265 whole entry): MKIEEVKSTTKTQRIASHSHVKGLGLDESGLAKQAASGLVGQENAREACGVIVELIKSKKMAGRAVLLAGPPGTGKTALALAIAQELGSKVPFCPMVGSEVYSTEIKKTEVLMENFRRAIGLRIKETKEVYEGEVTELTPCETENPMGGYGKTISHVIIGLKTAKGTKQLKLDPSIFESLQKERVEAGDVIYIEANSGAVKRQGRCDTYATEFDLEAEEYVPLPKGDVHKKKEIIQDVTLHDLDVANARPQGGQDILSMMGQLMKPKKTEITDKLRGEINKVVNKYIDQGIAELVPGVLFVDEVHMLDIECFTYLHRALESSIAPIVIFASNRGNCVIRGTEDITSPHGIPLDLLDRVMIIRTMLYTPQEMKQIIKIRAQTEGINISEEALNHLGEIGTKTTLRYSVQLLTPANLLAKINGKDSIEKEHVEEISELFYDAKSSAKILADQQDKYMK

| SMILES | pIC50 (TIP48/TIP49 complex) | GI50 [1] |
| --- | --- | --- |
| CCOc1ccc(Cl)cc1C(=O)NCC(C)(C)CC(=O)Nc1c(CCCCN(C)C)n(C)n(-c2ccccc2)c1=O [Example 88, 5-Chloro-N-[4-({5-[4-(dimethylamino)butyl]-1-methyl-3-oxo-2-phenyl-2,3-dihydro-1H-pyrazol-4-yl}amino)-2,2-dimethyl-4-oxobutyl]-2-ethoxybenzamide] | 7.48 | 0.061 µM |
| CCOc1ccc(Cl)cc1C(=O)NCC(C)(C)CC(=O)Nc1c(C)n(C)n(-c2ccccc2)c1=O [Example 93, 5-Chloro-N-{4-[(1,5-dimethyl-3-oxo-2-phenyl-2,3-dihydro-1H-pyrazol-4-yl)amino]-2,2-dimethyl-4-oxobutyl}-2-ethoxybenzamide] | 7.60 | 0.055 µM |
| Cc1c(NC(=O)CC(C)(C)CNC(=O)c2cc(Cl)ccc2OC(C)C)c(=O)n(-c2ccccc2)n1C [Example 94] | 7.06 | 0.073 µM |
| CCOc1ncc(Cl)cc1C(=O)NCC(C)(C)CC(=O)Nc1c(C)n(C)n(-c2ccccc2)c1=O [Example 95] | 7.23 | 0.18 µM |
| COc1ccc(Cl)cc1NC(=O)CC1(CC(=O)Nc2c(C)n(C)n(-c3ccccc3)c2=O)OCCO1 [Example 98, N-(5-Chloro-2-methoxyphenyl)-2-(2-{2-[(1,5-dimethyl-3-oxo-2-phenyl-2,3-dihydro-1H-pyrazol-4-yl)amino]-2-oxoethyl}-1,3-dioxolan-2-yl)acetamide] | 5.66 | 9.6 µM |
| CCOc1ccc(Cl)cc1NC(=O)CC(C)(O)CC(=O)Nc1c(C)n(C)n(-c2ccccc2)c1=O (stereo not drawn) [Example 103, N-(5-Chloro-2-ethoxyphenyl)-N′-(1,5-dimethyl-3-oxo-2-phenyl-2,3-dihydro-1H-pyrazol-4-yl)-3-hydroxy-3-methylpentanediamide] | 6.77 | 1.4 µM |
| COc1ccc(Cl)cc1NC(=O)CC(C)(CC(=O)Nc1c(C)n(C)n(-c2ccccc2)c1=O)OC (stereo not drawn) [Example 104, N-(5-Chloro-2-methoxyphenyl)-N′-(1,5-dimethyl-3-oxo-2-phenyl-2,3-dihydro-1H-pyrazol-4-yl)-3-methoxy-3-methylpentanediamide] | 6.60 | 1.3 µM |
| Cc1c(NC(=O)CC(C)(C)CNC(=O)c2cc(Cl)cc3c2OC(C)C3)c(=O)n(-c2ccccc2)n1C (stereo not drawn) [Example 105, 5-Chloro-N-{4-[(1,5-dimethyl-3-oxo-2-phenyl-2,3-dihydro-1H-pyrazol-4-yl)amino]-2,2-dimethyl-4-oxobutyl}-2-methyl-2,3-dihydrobenzofuran-7-carboxamide] | 7.59 | 0.074 µM |
| Cc1c(NC(=O)CC(C)(C)CNC(=O)c2cc(Cl)cc3c2OCCC3)c(=O)n(-c2ccccc2)n1C [Example 106, 6-Chloro-N-{4-[(1,5-dimethyl-3-oxo-2-phenyl-2,3-dihydro-1H-pyrazol-4-yl)amino]-2,2-dimethyl-4-oxobutyl}chromane-8-carboxamide] | 7.46 | 0.1 µM |
| Cc1ccc2cc(Cl)cc(C(=O)NCC(C)(C)CC(=O)Nc3c(C)n(C)n(-c4ccccc4)c3=O)c2n1 [Example 107, 6-Chloro-N-{4-[(1,5-dimethyl-3-oxo-2-phenyl-2,3-dihydro-1H-pyrazol-4-yl)amino]-2,2-dimethyl-4-oxobutyl}-2-methylquinoline-8-carboxamide] | 7.18 | 0.19 µM |
| Cc1c(NC(=O)CC(C)(C)CNC(=O)c2cc(Cl)cc3c2OC(C)CN3)c(=O)n(-c2ccccc2)n1C (stereo not drawn) [Example 109] | 6.70 | 0.2 µM |
| COc1ccc(Cl)cc1C(=O)NCC(C)(C)C(O)C(=O)Nc1c(C)n(C)n(-c2ccccc2)c1=O (stereo not drawn) [Example 112] | 6.82 | 0.68 µM |
| CCOc1cc(F)c(Cl)cc1NC(=O)CC(C)(C)CC(=O)Nc1c(COC)n(C)n(-c2ccccc2)c1=O [Example 119, N-(5-Chloro-2-ethoxy-4-fluorophenyl)-N′-[5-(methoxymethyl)-1-methyl-3-oxo-2-phenyl-2,3-dihydro-1H-pyrazol-4-yl]-3,3-dimethylpentanediamide] | 7.02 | 0.27 µM |
| COCc1c(NC(=O)CC(C)(C)CNC(=O)c2cc(Cl)cc3cc(C)oc23)c(=O)n(-c2ccccc2)n1C [Example 120, 5-Chloro-N-(4-{[5-(methoxymethyl)-1-methyl-3-oxo-2-phenyl-2,3-dihydro-1H-pyrazol-4-yl]amino}-2,2-dimethyl-4-oxobutyl)-2-methylbenzofuran-7-carboxamide] | 7.62 | 0.051 µM |

Now from value to compound:

| pIC50 (TIP48/TIP49 complex) | GI50 [1] | SMILES |
| --- | --- | --- |
| 7.46 | 0.12 µM | Cc1c(NC(=O)CC(C)(C)CNC(=O)c2cc(Cl)ccc2OC2CC2)c(=O)n(-c2ccccc2)n1C [Example 96] |
| 7.00 | 1 µM | Cc1c(NC(=O)CC(C)(O)CNC(=O)c2cc(Cl)c(F)cc2OC(C)C)c(=O)n(-c2ccccc2)n1C (stereo not drawn) [Example 97, 5-Chloro-N-{4-[(1,5-dimethyl-3-oxo-2-phenyl-2,3-dihydro-1H-pyrazol-4-yl)amino]-2-hydroxy-2-methyl-4-oxobutyl}-4-fluoro-2-isopropoxybenzamide] |
| 6.59 | 0.4 µM | CCC(C)(CC(=O)Nc1cc(Cl)ccc1OC)CC(=O)Nc1c(C)n(C)n(-c2ccccc2)c1=O (stereo not drawn) [Example 99, N-(5-Chloro-2-methoxyphenyl)-N′-(1,5-dimethyl-3-oxo-2-phenyl-2,3-dihydro-1H-pyrazol-4-yl)-3-ethyl-3-methylpentanediamide] |
| 7.02 | 0.86 µM | COc1ccc(Cl)cc1NC(=O)CC1(CC(=O)Nc2c(C)n(C)n(-c3ccccc3)c2=O)CCC1 [Example 100, N-(5-Chloro-2-methoxyphenyl)-2-(1-{2-[(1,5-dimethyl-3-oxo-2-phenyl-2,3-dihydro-1H-pyrazol-4-yl)amino]-2-oxoethyl}cyclobutyl)acetamide] |
| 6.35 | 3.2 µM | COc1ccc(Cl)cc1NC(=O)CC1(CC(=O)Nc2c(C)n(C)n(-c3ccccc3)c2=O)CC1 [Example 101, N-(5-Chloro-2-methoxyphenyl)-2-(1-{2-[(1,5-dimethyl-3-oxo-2-phenyl-2,3-dihydro-1H-pyrazol-4-yl)amino]-2-oxoethyl}cyclopropyl)acetamide] |
| 6.82 | 0.78 µM | CCOc1ccc(Cl)cc1NC(=O)CC(C)(CC(=O)Nc1c(C)n(C)n(-c2ccccc2)c1=O)OC(C)=O (stereo not drawn) [Example 102, {1-[2-(5-Chloro-2-ethoxyaniline)-2-oxoethyl]-3-[(1,5-dimethyl-3-oxo-2-phenyl-2,3-dihydro-1H-pyrazol-4-yl)amino]-1-methyl-3-oxopropyl} acetate] |
| 6.72 | 0.74 µM | Cc1c(NC(=O)CC(C)(C)CNC(=O)c2cc(Cl)ccc2OC2COC2)c(=O)n(-c2ccccc2)n1C [Example 108, 5-Chloro-N-{4-[(1,5-dimethyl-3-oxo-2-phenyl-2,3-dihydro-1H-pyrazol-4-yl)amino]-2,2-dimethyl-4-oxobutyl}-2-(oxetan-3-yloxy)benzamide] |
| 7.48 | 0.12 µM | Cc1c(NC(=O)CC(C)(C)CNC(=O)c2cc(Cl)cc3c2OC(C)CN3C)c(=O)n(-c2ccccc2)n1C (stereo not drawn) [Example 110, 6-Chloro-N-{4-[(1,5-dimethyl-3-oxo-2-phenyl-2,3-dihydro-1H-pyrazol-4-yl)amino]-2,2-dimethyl-4-oxobutyl}-2,4-dimethyl-2,3-dihydro-1,4-benzoxazine-8-carboxamide] |
| 7.36 | 0.09 µM | CCc1nc2c(C(=O)NCC(C)(C)CC(=O)Nc3c(C)n(C)n(-c4ccccc4)c3=O)cc(Cl)cc2o1 [Example 111, 6-Chloro-N-{4-[(1,5-dimethyl-3-oxo-2-phenyl-2,3-dihydro-1H-pyrazol-4-yl)amino]-2,2-dimethyl-4-oxobutyl}-2-ethyl-1,3-benzoxazole-4-carboxamide] |
| 7.39 | 0.11 µM | CCOc1ncc(Cl)cc1C(=O)NCC(C)(C)CC(=O)Nc1c(COC)n(C)n(-c2ccccc2)c1=O [Example 117, 5-Chloro-2-ethoxy-N-(4-{[5-(methoxymethyl)-1-methyl-3-oxo-2-phenyl-2,3-dihydro-1H-pyrazol-4-yl]amino}-2,2-dimethyl-4-oxobutyl)pyridine-3-carboxamide] |
